Source: US20240166603A1, “Method of Treating Cancer With Atpenin A5 Derviatives” (Texas Tech University System, priority 2018, published 2024)
Converted amounts (≈) assume the structure as drawn. Like-named read-outs stand apart in the source and are kept apart here. Marks after values point to notes of the source that are not given here.

Experiments:
[1] = target: mitochondrial complex II (CII) (Rattus norvegicus, UniProt P21913+Q641Z9+Q6PCT8); test: Complex II inhibition assay, isolated rat heart mitochondria; details: for CII inhibition activity: 100 nM where stated; for LLE (Ligand-Lipophilicity Efficiency): LLE = pIC50-ClogP
Sequence of mitochondrial complex II (CII) (P21913 31-282): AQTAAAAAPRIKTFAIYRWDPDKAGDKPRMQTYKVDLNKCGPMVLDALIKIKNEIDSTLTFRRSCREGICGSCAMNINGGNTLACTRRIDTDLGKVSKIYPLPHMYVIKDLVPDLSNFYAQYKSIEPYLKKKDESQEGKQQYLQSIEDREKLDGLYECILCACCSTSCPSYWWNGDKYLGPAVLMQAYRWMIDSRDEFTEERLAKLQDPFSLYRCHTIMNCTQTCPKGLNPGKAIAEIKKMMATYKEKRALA
Sequence of mitochondrial complex II (CII) (Q641Z9 30-169 limits assumed): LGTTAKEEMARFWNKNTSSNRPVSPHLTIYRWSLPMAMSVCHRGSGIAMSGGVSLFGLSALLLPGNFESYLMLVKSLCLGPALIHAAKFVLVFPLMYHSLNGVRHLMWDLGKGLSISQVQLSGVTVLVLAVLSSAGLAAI
Sequence of mitochondrial complex II (CII) (Q6PCT8 57-159): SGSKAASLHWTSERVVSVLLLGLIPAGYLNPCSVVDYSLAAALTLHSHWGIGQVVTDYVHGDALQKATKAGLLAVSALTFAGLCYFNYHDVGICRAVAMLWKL
Sequence of mitochondrial complex II (CII) (Q920L2 35-656 partner): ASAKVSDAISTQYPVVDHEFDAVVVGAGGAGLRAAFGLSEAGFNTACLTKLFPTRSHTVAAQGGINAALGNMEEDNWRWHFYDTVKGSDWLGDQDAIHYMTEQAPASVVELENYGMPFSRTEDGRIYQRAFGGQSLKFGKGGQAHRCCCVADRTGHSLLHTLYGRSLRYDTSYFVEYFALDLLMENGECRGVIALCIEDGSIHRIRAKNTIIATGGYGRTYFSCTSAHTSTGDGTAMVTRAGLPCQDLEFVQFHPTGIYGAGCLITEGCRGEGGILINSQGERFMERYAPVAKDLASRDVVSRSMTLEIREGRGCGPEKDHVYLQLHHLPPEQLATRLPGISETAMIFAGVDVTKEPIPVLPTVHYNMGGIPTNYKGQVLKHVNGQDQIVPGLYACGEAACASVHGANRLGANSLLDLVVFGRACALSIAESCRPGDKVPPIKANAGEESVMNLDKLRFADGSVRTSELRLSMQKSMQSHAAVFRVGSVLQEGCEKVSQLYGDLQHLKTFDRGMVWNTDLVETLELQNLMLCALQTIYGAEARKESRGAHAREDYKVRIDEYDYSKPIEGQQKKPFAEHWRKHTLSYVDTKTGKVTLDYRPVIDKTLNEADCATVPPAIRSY

[2] = tested on: PC3 prostate cancer cells under hypoxia; test: Cell death under hypoxia, microfluidic chip, Annexin V and Sytox Green
[3] = target: Complex I (NADH ubiquinone-oxidoreductase) (Mus musculus, UniProt P03888+Q91WD5+Q9DC70); test: Complex I inhibition assay, mouse cardiac mitochondria; details: for Selectivity Ratio (CII:CI): Table 3
CII = details: cited from earlier work
bovine CII = bovine CII (Bos taurus, UniProt P35720+Q3T189+Q95123); details: literature [27]; cited from earlier work
Sequence of bovine CII (Q3T189 29-280): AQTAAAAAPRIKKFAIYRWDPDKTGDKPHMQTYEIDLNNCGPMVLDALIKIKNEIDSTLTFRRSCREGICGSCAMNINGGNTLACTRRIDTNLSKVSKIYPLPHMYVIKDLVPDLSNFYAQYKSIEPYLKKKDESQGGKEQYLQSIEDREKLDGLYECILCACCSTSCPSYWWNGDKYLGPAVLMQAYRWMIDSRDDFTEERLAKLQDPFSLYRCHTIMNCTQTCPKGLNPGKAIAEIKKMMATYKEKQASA
Sequence of bovine CII (P35720 30-169): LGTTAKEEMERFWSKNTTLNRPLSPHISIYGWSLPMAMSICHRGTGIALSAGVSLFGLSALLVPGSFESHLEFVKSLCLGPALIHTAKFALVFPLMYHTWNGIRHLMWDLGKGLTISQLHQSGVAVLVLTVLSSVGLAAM
Sequence of bovine CII (Q95123 56-158): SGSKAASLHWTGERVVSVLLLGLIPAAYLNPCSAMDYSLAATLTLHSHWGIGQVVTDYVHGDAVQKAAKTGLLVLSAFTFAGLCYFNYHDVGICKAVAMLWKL
Sequence of bovine CII (P31039 44-665 partner): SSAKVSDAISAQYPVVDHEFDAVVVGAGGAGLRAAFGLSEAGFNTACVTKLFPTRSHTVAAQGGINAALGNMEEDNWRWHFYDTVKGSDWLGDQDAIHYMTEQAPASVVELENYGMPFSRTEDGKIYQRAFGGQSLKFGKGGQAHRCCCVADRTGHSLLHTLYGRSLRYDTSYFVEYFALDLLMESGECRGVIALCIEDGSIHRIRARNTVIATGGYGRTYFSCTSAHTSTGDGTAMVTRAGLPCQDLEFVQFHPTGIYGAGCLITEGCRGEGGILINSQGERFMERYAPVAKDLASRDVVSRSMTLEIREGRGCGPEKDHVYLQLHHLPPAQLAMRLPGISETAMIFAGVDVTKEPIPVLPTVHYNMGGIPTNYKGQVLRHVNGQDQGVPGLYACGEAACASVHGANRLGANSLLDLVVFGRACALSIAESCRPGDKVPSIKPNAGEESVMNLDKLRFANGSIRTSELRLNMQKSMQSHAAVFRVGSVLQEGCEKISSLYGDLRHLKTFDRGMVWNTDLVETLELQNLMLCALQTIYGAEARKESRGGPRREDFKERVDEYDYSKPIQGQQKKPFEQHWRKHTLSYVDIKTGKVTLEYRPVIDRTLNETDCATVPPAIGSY

HEK293 cells = test: Cytotoxicity MTS assay, HEK293
[4] = tested on: 22Rv1 prostate cancer cells; test: Cytotoxicity MTS assay, 22Rv1
[5] = tested on: WPMY-1 prostate stromal cells; test: Cytotoxicity, WPMY-1 prostate stromal cells; type: cell-based; details: Homo sapiens
[6] = tested on: DU-145 prostate cancer cells; test: Cytotoxicity MTS assay, DU-145
[7] = Table 5, SDH1 and SDH2, percent relative to control
[8] = read-out: CII IC50, rat heart CII
[9] = read-out: CII IC50, rat heart mitochondria, mean value of four experiments

In the case of `CCCCCC(O)c1c(O)nc(OC)c(OC)c1O` (racemic) [Compound 18, (rac)-3-(1-hydroxyhexyl)-5,6-dimethoxypyridine-2,4-diol], the “inhibition of CII at 100 nM concentration” value (shortened to “inhibition of CII”) [1] is reported as 0%, the “CII inhibition activity” value [1] is reported as “no CII inhibition activity” and the “cytotoxic effect under hypoxia” value ([2]; up to 10 μM) is reported as “no cytotoxic effect”.

For `CCCCCC(O)c1cnc(OC)c(OC)c1O` (racemic) [Compound 19, (rac)-5-(1-hydroxyhexyl)-2,3-dimethoxypyridin-4-ol], the “inhibition of CII” value [1] was 0% and the “CII inhibition activity” value [1] was “inactive compound”.

In the case of `COc1[nH]c(=O)c(C(=O)[C@@H](C)C[C@H](C)[C@@H](Cl)CCl)c(O)c1OC` [Atpenin A5, atpenin A5], the “Selectivity Ratio (CII:CI)” value [3] is reported as greater than 3030, the IC50 ([3]; read-out: Complex I IC50) is reported as greater than 10000 nM and the “LLE (Ligand-Lipophilicity Efficiency)” value [1] is reported as 5.36. The IC50 [1, 8] was 3.3 nM, the IC50 [1, 9] was 3.3 nM and the IC50 ([1]; read-out: Complex II IC50, Table 3) was 3.3 nM. For the same compound, the IC50 (CII; literature [20, 23]) was 3.6 to 10 nM.

With `COc1nc(O)c(C(=O)c2ccco2)c(O)c1OC` [Compound 16a, (2,4-dihydroxy-5,6-dimethoxypyridin-3-yl)(furan-2-yl)methanone] the “inhibition of CII” value [1] was 0%^e and the “CII inhibition activity” value [1] was “abrogates CII inhibition activity”.

In the case of `CCCCC(=O)c1c(O)nc(OC)c(OC)c1O` [Compound 16b, 1-(2,4-dihydroxy-5,6-dimethoxypyridin-3-yl)pentan-1-one], the “LLE (Ligand-Lipophilicity Efficiency)” value [1] is reported as 5.37, the IC50 [1, 8] is reported as 345 nM and the IC50 [1, 9] is reported as 346 nM. The IC50 (bovine CII) was 96 nM.

For `COc1nc(O)c(C(=O)CCCCOCc2ccccc2)c(O)c1OC` [Compound 16d, 5-(benzyloxy)-1-(2,4-dihydroxy-5,6-dimethoxypyridin-3-yl)pentan-1-one], the “LLE (Ligand-Lipophilicity Efficiency)” value [1] was 3.41 and the IC50 [1, 9] was 281 nM.

With `COc1nc(O)c(C(=O)CCCCO)c(O)c1OC` [Compound 16e, 1-(2,4-dihydroxy-5,6-dimethoxypyridin-3-yl)-5-hydroxypentan-1-one] the “LLE (Ligand-Lipophilicity Efficiency)” value [1] was 6.90 and the IC50 [1, 9] was 3730 nM.

For `CCCCCCC(=O)c1c(O)nc(OC)c(OC)c1O` [Compound 16f, 1-(2,4-dihydroxy-5,6-dimethoxypyridin-3-yl)heptan-1-one], the “LLE (Ligand-Lipophilicity Efficiency)” value [1] is given as 4.57, the IC50 [1, 9] is given as 282 nM and the IC50 (bovine CII) is given as 20 nM.

For `CCCCCCCC(=O)c1c(O)nc(OC)c(OC)c1O` [Compound 16g, 1-(2,4-dihydroxy-5,6-dimethoxypyridin-3-yl)octan-1-one], the “LLE (Ligand-Lipophilicity Efficiency)” value [1] was 4.89 and the IC50 [1, 9] was 49.1 nM.

With `CCCCCCCCC(=O)c1c(O)nc(OC)c(OC)c1O` [Compound 16h, 1-(2,4-dihydroxy-5,6-dimethoxypyridin-3-yl)nonan-1-one] the “LLE (Ligand-Lipophilicity Efficiency)” value [1] was 4.93 and the IC50 [1, 9] was 15.7 nM.

For `CCCCCCCCCCC(=O)c1c(O)nc(OC)c(OC)c1O` [Compound 16j, 1-(2,4-dihydroxy-5,6-dimethoxypyridin-3-yl)undecan-1-one], the “LLE (Ligand-Lipophilicity Efficiency)” value [1] was 4.32 and the IC50 [1, 8] was 8.6 nM.

With `CCCCCCCCCCCCC(=O)c1c(O)nc(OC)c(OC)c1O` [Compound 16k, 1-(2,4-dihydroxy-5,6-dimethoxypyridin-3-yl)tridecan-1-one] the IC50 [3] was greater than 10000 nM, the “Selectivity Ratio (CII:CI)” value [3] was greater than 3030 and the IC50 ([3]; read-out: Complex I IC50) was greater than 10000 nM. For the same compound, the “selectivity for prostate cancer cells over HEK293” value (HEK293 cells; 16c: DU-145 and 22Rv1, 16k: 22Rv1) was 17.5 fold, the IC50 (HEK293 cells; Homo sapiens, HEK293, 48 h, read-out: HEK293 IC50) was 35 µg/mL (≈ 95.2 µM) and the IC50 ([4]; Homo sapiens, 22Rv1, 48 h, read-out: 22Rv1 IC50) was 2 µg/mL (≈ 5.44 µM). The “22Rv1 IC50” value ([4]; MTS, 48 hours unless otherwise noted) was 2 µg/mL, the “increase in efficacy relative to Enzalutamide, inhibition of cancer growth in vitro” value ([4]; cell line not given) was 10 fold and the IC50 [5] was 10.7 µg/mL (≈ 29.1 µM). The “LLE (Ligand-Lipophilicity Efficiency)” value [1] was 3.76 and the “CII IC50 expressed” value ([1]; conversion of the nM value) was 0.00121 µg/mL.

With `CCCCCC(O)c1c(OCOC)nc(OC)c(OC)c1OCOC` (centres unmarked) [Compound 17, 1-(5,6-dimethoxy-2,4-bis(methoxymethoxy)pyridin-3-yl)hexan-1-ol] the “inhibition of CII” value [1] was 0%.

For `CCCCCC(=O)c1cnc(OC)c(OC)c1O` [Compound 20, 1-(4-hydroxy-5,6-dimethoxypyridin-3-yl)hexan-1-one], the “inhibition of CII” value [1] was 0% and the “CII inhibition activity” value [1] was “no activity at 100 nM concentration”.

For `CCCCCC(OC)c1cnc(OC)c(OC)c1O` (centres unmarked) [Compound 24, 2,3-dimethoxy-5-(1-methoxyhexyl)pyridin-4-ol], the “inhibition of CII” value [1] was 0%, the “CII inhibition activity” value [1] was “no activity to inhibit CII at 100 nM” and the IC50 ([6]; Homo sapiens, DU-145, 48 h, read-out: DU-145 IC50) was greater than 30 µg/mL. The “growth inhibition of DU-145 cells” value ([6]; up to 30 μg/mL) was “no growth inhibition effect”.

For `CC1=NS(=O)(=O)c2cc(Cl)ccc2N1` [Diazoxide, diazoxide, reference compound], the “LLE (Ligand-Lipophilicity Efficiency)” value [1] is listed as 1.85 and the IC50 (CII; literature) is listed as 32000 nM.

With `COc1cc([C@@H]2c3cc4c(cc3[C@@H](O[C@@H]3O[C@@H]5CO[C@@H](C)O[C@H]5[C@H](O)[C@H]3O)[C@H]3COC(=O)[C@H]23)OCO4)cc(OC)c1O` [Etoposide, etoposide, reference compound] the cell death ([2]; 10 μM, hypoxia) was 7%.

For `O=C(O)CC(=O)O` [Malonate], the IC50 (CII; literature) is given as 40000 nM.

For `CCCCC(=O)c1c(O)nc(OC)c(OC)c1O` [SDH1], the “value at 100 nM (Control 100%)” value [7] was 65.17% and the “value at 1 uM (Control 100%)” value [7] was 35.13%.

In the case of `COc1nc(O)c(C(=O)CCCC[P+](c2ccccc2)(c2ccccc2)c2ccccc2)c(O)c1OC` [SDH2], the “value at 100 nM (Control 100%)” value [7] is reported as 61.64% and the “value at 1 uM (Control 100%)” value [7] is reported as 43.53%.

For `O=C(CC(=O)C(F)(F)F)c1cccs1` [TFFA, Thenoyltrifluoroacetone], the IC50 (CII; literature) is given as 30000 nM.

For `Cc1c(C)c2c(c(C)c1OC(=O)CCC(=O)O)CC[C@@](C)(CCC[C@H](C)CCC[C@H](C)CCCC(C)C)O2` [α-TOS, α-Tocopheryl succinate], the IC50 (CII; literature) is given as 42000 nM.
